Reference: ChEMBL document CHEMBL1126995, “Nonpeptide -turn mimetics of enkephalin” (1993)

How the values were obtained:
Mus musculus = organism: Mus musculus; assay: Tested for the analgesic activity in mouse writhing assay; assay type: functional
[1] = target: Delta-type opioid receptor (Rattus norvegicus) (UniProt P33533); assay: Binding affinity against Opioid receptor delta 1 from rat brain using (1.0 nM [3H]DTLET or 1.0 nM [3H]-DSLET) at 6 uM
[2] = target: Mu-type opioid receptor (Rattus norvegicus) (UniProt P33535); assay: Binding affinity against mu opioid receptors from rat brain (minus cerebellum) using [3H]DAMGO (2.0 nM) at 10 uM; assay type: tissue-based
Chain of Mu-type opioid receptor (Rattus norvegicus) (P33535 whole entry): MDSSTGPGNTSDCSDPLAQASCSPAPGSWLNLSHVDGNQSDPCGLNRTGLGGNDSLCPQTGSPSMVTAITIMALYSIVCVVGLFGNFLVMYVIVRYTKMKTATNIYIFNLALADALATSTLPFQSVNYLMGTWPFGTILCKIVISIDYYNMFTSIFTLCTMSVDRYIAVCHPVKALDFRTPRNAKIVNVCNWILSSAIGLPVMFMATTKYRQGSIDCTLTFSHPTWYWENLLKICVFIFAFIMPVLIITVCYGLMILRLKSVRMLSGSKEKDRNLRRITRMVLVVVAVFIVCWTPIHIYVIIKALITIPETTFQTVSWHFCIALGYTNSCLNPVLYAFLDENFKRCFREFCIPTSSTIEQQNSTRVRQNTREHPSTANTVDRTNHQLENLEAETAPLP

Chain of Delta-type opioid receptor (Rattus norvegicus) (P33533 whole entry): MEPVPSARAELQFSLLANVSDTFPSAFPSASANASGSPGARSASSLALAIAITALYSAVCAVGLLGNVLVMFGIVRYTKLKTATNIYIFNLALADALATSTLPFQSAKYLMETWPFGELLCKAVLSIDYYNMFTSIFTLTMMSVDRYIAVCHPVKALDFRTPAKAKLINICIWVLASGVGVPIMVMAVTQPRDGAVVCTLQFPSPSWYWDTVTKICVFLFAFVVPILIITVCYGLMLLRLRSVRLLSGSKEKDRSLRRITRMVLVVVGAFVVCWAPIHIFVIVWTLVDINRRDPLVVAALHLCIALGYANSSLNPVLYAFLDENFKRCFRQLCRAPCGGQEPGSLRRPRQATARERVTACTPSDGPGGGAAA

- Displacement [1]: 50%
- Displacement [2]: 53%
Structure (SMILES): COC(=O)C[C@@H]1CC[C@H](Cc2ccccc2)NC(=O)CCC(CNC(=O)[C@@H](N)Cc2ccc(O)cc2)C(=O)N1 (stereo partly drawn)
- ED50 (Mus musculus): <10 µg/mL
